# According to US20230201311A1, “COMPOSITIONS AND METHODS FOR TREATING NON-ALCOHOLIC STEATOHEPATITIS (NASH)” (SHANGHAI BENEMAE PHARMACEUTICAL CORPORATION, priority 2020, published 2023):
# Key:
# HFD-NASH mice [1] = assay: Therapeutic effects of Beinaglutide on HFD induced NASH model in ob/ob mice (Example 2, 11 weeks); format: in vivo; conditions: for percentage of body weight changes from baselines: Day 78 (11 weeks); for plasma ALT level: FIG. 16B
# Source text: Animal grouping and experiment process: A total of 70 male ob/ob mice (6 weeks old) were fed with a chow diet after transferred to SPF animal room and acclimatized for 1 week. The feed was then switched to HFD diet (D09100310, fat (40 Kcal %), fructose (20 Kcal %) and cholesterol (2%), also named GAN (Gubra Amylin NASH) diet, Research Diets, Inc., USA) and maintained for 6 weeks. Inversed artificial circadian rhythms lighting were adopted during this period and subsequent drug administration period.
# Plasma samples were collected for the measurement of ALT and mouse body weight data were measured at week 6. Animals were then randomly allocated into 4 groups (12 animals/group) based on body weight (the first weight index) and plasma ALT level (the second weight index). Drug and vehicle administration were started from week 7 since modeling start and mice were maintained on HFD diet with inversed artificial circadian rhythms lighting.
# Data recording: Appearance and behavior of each mouse were observed after administration. All abnormal appearance, status and behaviors were recorded. In the period of HFD model development, body weight was measured once weekly from week 1 to week 6. Then body weight and food consumption were measured twice weekly since compound dosing start (week 7). The food consumption was calculated by the diet consumption of each cage of mice within 8 hours per day, the average food consumption per group was calculated. […]
# Blood and tissue sampling: At the end of the in vivo study, all mice were euthanized via carbon dioxide (CO2) asphyxia after 11.5 hours fasting. Blood samples were collected via cardiac puncturing, one aliquot of each blood sample was collected into a tube without anti-coagulant for serum preparation. Serum was obtained by centrifugation at 3000 rpm for 10 minutes at 4° C. and then stored in a −80° C. refrigerator before being used for the measurement of ALT, AST, total bilirubin (TBIL), TC, TG and LDL-c. The other aliquot of each blood sample was collected into a tube with EDTA-K anti-coagulant for plasma preparation. Plasma samples were obtained by centrifugation at 4000×g for 10 minutes at 4° C. and then stored in a −80° C. refrigerator.
# After the animal was sacrificed, the body weight and liver weight were measured, and four lobes of each liver were collected. The right middle lobe of each liver was collected, cut into two sections, put into two SNAP frozen tubes and kept at −80° C. before testing. One section of the liver tissue was used for mRNA expression analysis of Tgfb1, Col1a1 and Acta2; and the other section of the liver tissue was used for the measurement of TC and TG contents. The left middle lobe of each liver was collected, store at −80° C. for future use. The left lateral lobe of each liver was collected, cut into two sections and put into two tubes. One section was used for optimal cutting temperature (OCT) embedding, frozen sectioning and oil red staining for steatosis examination, and for calculation of percentage of fat deposition area. The other section was fixed with 10% neutral formalin solution and processed into formalin fixed paraffin-embedded (FFPE) block for H&E, Sirius red or α-SMA IHC staining respectively. The right lateral lobe of each liver was collected and fixed in 10% neutral formalin for future use.
# Serum biochemistry analysis: The serum samples were taken out from −80° C. refrigerator and restored to room temperature. 150 μl of each serum sample was pipetted out for the analysis of ALT, AST, TBIL, TC, TG and LDL-c with automatic biochemical analyzer (HITACHI 7180).
# qPCR analysis: The right middle lobe of each liver tissue was cut into small pieces, and 30-50 mg of liver tissue was weighed and transferred into a Lysing Matrix D tube, then 1 ml of TRIzol Reagent was added into Lysing Matrix D containing tissue immediately. […]
# [2] = mouse, in vivo, sc
# Description: Mice (n=4 per time point) were randomized into different groups by body weight on the day before the study. Mice were fasted overnight before dosing. […] Samples were collected at the time intervals shown in Table 1, where about 60 μL blood was taken into EDTA-coated tubes (pre-added 2.5 μL DPP-4 inhibitor, and 2.5 μL protease inhibitor). The plasma was separated on a pre-cooled centrifuge and then immediately frozen in dry ice. The samples were stored at −80° C. till assay.
# HFD-NASH mice [3] = assay: Pharmacodynamics study of Beinaglutide in HFD-NASH mice (Example 1, 4 weeks); format: in vivo
# Description: HFD-NASH model development Animals were group-housed in standard cages at 22° C. in a 12:12-h light-dark cycle. Ob/ob mice were allowed ad libitum access to a diet enriched in fat (40% kcal), fructose (20% by weight), and cholesterol (2% by weight) (Research Diets, Inc., #D09100310). Over 9 weeks feeding, the mice (HFD-NASH) were developed with nonalcoholic fatty liver disease (steatosis, steatohepatitis with fibrosis), as assessed by biochemical methods (e.g., ALT levels).^1 ^1Santhekadur P K, Kumar D P, Sanyal AszJ. Preclinical models of non-alcoholic fatty liver disease. J Hepatol. 2018 February; 68(2):230-237; 2) Clapper J R. Hendricks M D, Gu G. at al. Diet-Induced mouse model of fatty liver disease and nonalcoholic steatohepatitis reflecting clinical disease progression and methods of assessment. Am J Physiol Gastrointest Liver Physiol 305: G483-G495. 2013.
# After 9 weeks diet-induction, HFD-NASH mice were randomized into different groups by body weight. Body weight and diet were measured every day. At termination, blood was collected by cardiac puncture after animal's euthanasia by CO2. Liver were harvested and weighted. Right medial and/or left lateral lobes of the liver were excised. One part of liver was frozen for liver triglyceride measurement. One part was frozen for protein, RNA level qualification, like collagen 1 alpha 1 (Col1a1). One part was paraffin embedded. Hematoxylin and eosin (H&E) were used for morphological analysis. Picrosirius red stains was used for assessment of hepatic fibrosis. Histopathological analysis was performed by a pathologist blinded to the study. The remaining liver tissue was kept at −80° C. till analysis. Plasma levels of ALT, AST, TG, and total cholesterol (TC) were measured by bioanalyzer or kits.
# Oral glucose tolerance test (OGTT) was performed at day 30 and was a test to diagnose type 2 diabetes (FIG. 4B).
# Homeostatic Model Assessment of Insulin Resistance (HOMA-IR) is a calculation marker for insulin resistance which was calculated by formula: Glucose (mM)×Insulin […]/22.5 (FIG. 4C). *P<0.05, […] vs vehicle group by student t test.
# [4] = all 3 doses (0.6, 1.2, 2.4 mg/kg), about 11 weeks
smiles,measurement,setting,value
CC[C@H](C)[C@H](NC(=O)[C@H](Cc1ccccc1)NC(=O)[C@H](CCC(=O)O)NC(=O)[C@H](CCCCN)NC(=O)[C@H](C)NC(=O)[C@H](C)NC(=O)[C@H](CCC(N)=O)NC(=O)CNC(=O)[C@H](CCC(=O)O)NC(=O)[C@H](CC(C)C)NC(=O)[C@H](Cc1ccc(O)cc1)NC(=O)[C@H](CO)NC(=O)[C@H](CO)NC(=O)[C@@H](NC(=O)[C@H](CC(=O)O)NC(=O)[C@H](CO)NC(=O)[C@@H](NC(=O)[C@H](Cc1ccccc1)NC(=O)[C@@H](NC(=O)CNC(=O)[C@H](CCC(=O)O)NC(=O)[C@H](C)NC(=O)[C@@H](N)Cc1cnc[nH]1)[C@@H](C)O)[C@@H](C)O)C(C)C)C(=O)N[C@@H](C)C(=O)N[C@@H](Cc1c[nH]c2ccccc12)C(=O)N[C@@H](CC(C)C)C(=O)N[C@H](C(=O)N[C@@H](CCCCN)C(=O)NCC(=O)N[C@@H](CCCNC(=N)N)C(=O)O)C(C)C [Beinaglutide],liver fibrosis scores (H&E staining),"HFD-NASH mice [1]; 0.6 mg/kg and 2.4 mg/kg, 11 weeks, vs control group, FIGS. 20A-20C",significantly (P<0.05) decreased
same,"animal counts with severe pathological changes (steatosis, steatosis location, interlobular inflammation, liver fibrosis scores, liver fibrosis pattern)","HFD-NASH mice [1]; 0.6 mg/kg or 2.4 mg/kg, about 11 weeks",decreased
same,percentage of body weight changes from baselines,"HFD-NASH mice [1]; 0.6 mg/kg t.i.d. s.c., first of three values given 'respectively'",−10.32%
same,liver TG contents,"HFD-NASH mice [1]; 1.2 mg/kg and 2.4 mg/kg, 11 weeks, FIG. 18B",dramatically decreased
same,plasma ALT level,"HFD-NASH mice [1]; 1.2 mg/kg and 2.4 mg/kg, after 6 weeks of treatment",significantly decreased
same,serum ALT,"HFD-NASH mice [1]; 1.2 mg/kg and 2.4 mg/kg, after 11 weeks of treatment, vs control group, FIG. 17A","significantly (P<0.05, or P<0.01) decreased"
same,serum TC levels,"HFD-NASH mice [1]; 1.2 mg/kg and 2.4 mg/kg, after 11 weeks of treatment, vs control group, FIG. 17E","significantly (P<0.05, or P<0.01) decreased"
same,serum AST level,"HFD-NASH mice [1]; 1.2 mg/kg and 2.4 mg/kg, after 11 weeks, P>0.05, FIG. 17B",appeared to have decreased
same,percentage of body weight changes from baselines,"HFD-NASH mice [1]; 1.2 mg/kg t.i.d. s.c., second of three values given 'respectively'",−10.12%
same,percentage of body weight changes from baselines,"HFD-NASH mice [1]; 2.4 mg/kg t.i.d. s.c., third of three values given 'respectively'",−10.74%
same,area of liver macrovesicular steatosis (H&E staining),"HFD-NASH mice [1]; 2.4 mg/kg, 11 weeks, vs control group, FIG. 23B",significantly decreased
same,number of animals with significant fibrosis severity (liver fibrosis pattern scoring),"HFD-NASH mice [1]; 2.4 mg/kg, 11 weeks, FIG. 21C",reduced
same,"animal number with severe pathology for steatosis, steatosis location, interlobular inflammation","HFD-NASH mice [1]; 2.4 mg/kg, 11 weeks, FIGS. 24A-24E",decreased
same,body weight increase,"HFD-NASH mice [1]; Beinaglutide treatment groups (0.6, 1.2, 2.4 mg/kg t.i.d. s.c.), 11 weeks, vs control group, FIGS. 13A-13D",significantly reduced
same,8-hour average food consumption,"HFD-NASH mice [1]; Beinaglutide treatment groups (0.6, 1.2, 2.4 mg/kg), last 3 measurements (Day 68, 71, 75), vs control group, FIG. 14",significantly reduced
same,plasma ALT level,"HFD-NASH mice [1]; Beinaglutide treatment groups vs control group, after 9 weeks treatment",no significant difference
same,serum TG levels,"HFD-NASH mice [1]; Beinaglutide treatment groups, 11 weeks, P>0.05, FIG. 17D",no significant effect
same,liver TC content,"HFD-NASH mice [1]; Beinaglutide treatment groups, 11 weeks, vs control group, FIG. 18A",No statistically significant effect
same,serum TBIL,"HFD-NASH mice [1]; Beinaglutide treatment groups, 11 weeks, FIG. 17C",no significant effect
same,liver inflammation score,HFD-NASH mice [1]; [4],appeared to have decreased
same,serum AST level,HFD-NASH mice [1]; [4],appeared to have decreased
same,α-SMA positive areas (IHC staining),"HFD-NASH mice [1]; all Beinaglutide treatment groups, 11 weeks, FIGS. 22A-22B",decreased
same,relative mRNA expression level of Col1a1 in liver (qRT-PCR),"HFD-NASH mice [1]; each Beinaglutide dose group, 11 weeks, vs control group, FIG. 19A",significantly decreased
same,Tgfb1 gene expression level in liver (qRT-PCR),"HFD-NASH mice [1]; each Beinaglutide dose group, 11 weeks, vs control group, FIG. 19B",no statistically significant differences
same,Acta2 gene expression level in liver (qRT-PCR),"HFD-NASH mice [1]; each Beinaglutide dose group, 11 weeks, vs control group, FIG. 19C",no statistically significant differences
same,serum LDL-c level,"HFD-NASH mice [1]; each Beinaglutide treatment group (0.6, 1.2, 2.4 mg/kg), 11 weeks, vs control group, FIG. 17F","significant (P<0.05, P<0.01, or even P<0.001) decrease"
same,percentage of Sirius red staining positive area,"HFD-NASH mice [1]; each Beinaglutide treatment group, 11 weeks, vs control group, FIGS. 21A-21C",appeared to have decreased
same,liver weight,"HFD-NASH mice [1]; every Beinaglutide treatment group (0.6, 1.2, 2.4 mg/kg), 11 weeks, vs control group, FIG. 15A",significantly decreased
same,liver index,"HFD-NASH mice [1]; every Beinaglutide treatment group (0.6, 1.2, 2.4 mg/kg), 11 weeks, vs control group, FIG. 15B",significantly decreased
same,NAS score,"HFD-NASH mice [1]; every Beinaglutide treatment group, 11 weeks, FIG. 23A",appeared to have decreased
same,difference of pharmacokinetics between C57BL/6J mice and HFD-NASH mice,[2],No significant difference
same,Body weight,"HFD-NASH mice [3]; 2.4 mg/kg s.c. three times per day, 4 weeks, vs control group, FIG. 4A",lower body weight
same,liver weight,"HFD-NASH mice [3]; 2.4 mg/kg s.c. three times per day, 4 weeks, vs vehicle, FIG. 2A",significantly reduced
same,liver triglyceride (TG) content,"HFD-NASH mice [3]; 2.4 mg/kg s.c. three times per day, 4 weeks, vs vehicle, FIG. 2B",significantly reduced
same,plasma alanine aminotransferase (ALT),"HFD-NASH mice [3]; 2.4 mg/kg s.c. three times per day, 4 weeks, vs vehicle, FIG. 2C",significantly reduced
same,plasma aspartate aminotransferase (AST),"HFD-NASH mice [3]; 2.4 mg/kg s.c. three times per day, 4 weeks, vs vehicle, FIG. 2D",significantly reduced
same,macrovesicular and microvesicular steatosis (H&E-stained liver sections),"HFD-NASH mice [3]; 2.4 mg/kg s.c. three times per day, 4 weeks, vs vehicle, FIG. 2E",significantly reduced
same,Plasma TNF-α level,"HFD-NASH mice [3]; 2.4 mg/kg s.c. three times per day, 4 weeks, vs vehicle, FIG. 3A",significantly reduced
same,Plasma IL-6 level,"HFD-NASH mice [3]; 2.4 mg/kg s.c. three times per day, 4 weeks, vs vehicle, FIG. 3B",significantly reduced
same,Hepatic fibrosis (picrosirius red stained liver sections),"HFD-NASH mice [3]; 2.4 mg/kg s.c. three times per day, 4 weeks, vs vehicle, FIG. 3E",significantly reduced
same,"Protein level of liver collagen 1 alpha 1 (western blotting, densitometry normalized to actin)","HFD-NASH mice [3]; 2.4 mg/kg s.c. three times per day, 4 weeks, vs vehicle, FIGS. 3C-3D",significantly lower
same,blood glucose in the oral glucose tolerance test (OGTT),"HFD-NASH mice [3]; 2.4 mg/kg, OGTT at day 30, vs control group, FIG. 4B",lower blood glucose
same,HOMA-IR (insulin resistance),"HFD-NASH mice [3]; 2.4 mg/kg, vs control group, FIG. 4C",lower insulin resistance
